Laboratory results: US9604983B2, “Herbicidal 3-(2-benzyloxyphenyl)-2,4-dihydroxy-1,8-naphthyridine derivatives” (SYNGENTA LIMITED, priority 2013, dated 2017)

What was measured:
Test in all cases: Post-emergence efficacy, glasshouse pot test
Assay type in all cases: in vivo
Conditions in all cases: post-emergence application at 1000 g/ha; evaluated after 13 days; five point scale
[1] = tested on: Amaranthus retoflexus (AMARE)
Procedure: (§1) B1 Post-emergence Efficacy Seeds of a variety of test species are sown in standard soil in pots:—Solanum nigrum (SOLNI), Amaranthus retoflexus (AMARE), Setaria faberi (SETFA), Alopecurus myosuroides (ALOMY), Echinochloa crus-galli (ECHCG), Ipomoea hederacea (IPOHE). After 8 days cultivation (post-emergence) under controlled conditions in a glasshouse (at 24/16° C., day/night; 14 hours light; 65% humidity), the plants are sprayed with an aqueous spray solution derived from the formulation of the technical active ingredient in acetone/water (50:50) solution containing 0.5% Tween 20 (polyoxyethelyene sorbitan monolaurate, CAS RN 9005-64-5). Compounds are applied at 1000 g/ha. The test plants are then grown in a glasshouse under controlled conditions in a glasshouse (at 24/16° C., day/night; 14 hours light; 65% humidity) and watered twice daily. After 13 days, the test is evaluated for the percentage damage caused to the plant. The biological activities are shown below in Table 13, on a five point scale (5=80-100%; 4=60-79%; 3=40-59%; 2=20-39%; 1=0-19%).

[2] = tested on: Ipomoea hederacea (IPOHE)
Procedure: as §1

Solanum nigrum (SOLNI) = tested on: Solanum nigrum (SOLNI)
Procedure: as §1

Setaria faberi (SETFA) = tested on: Setaria faberi (SETFA)
Procedure: as §1

[3] = tested on: Alopecurus myosuroides (ALOMY)
Procedure: as §1

[4] = tested on: Echinochloa crus-galli (ECHCG)
Procedure: as §1

Row | SMILES | percentage damage caused to the plant, AMARE [1] | percentage damage caused to the plant, IPOHE [2] | percentage damage caused to the plant, SOLNI (Solanum nigrum (SOLNI)) | percentage damage caused to the plant, SETFA (Setaria faberi (SETFA)) | percentage damage caused to the plant, ALOMY [3] | percentage damage caused to the plant, ECHCG [4]
1 | O=c1c(-c2c(Cl)ccc(Cl)c2OCc2ccccc2)c(O)c2cccnc2n1CC(F)F [Compound 4.001] | 5 (5=80-100%) | 5 (5=80-100%) | 5 (5=80-100%) | 1 (1=0-19%) | 4 (4=60-79%) | 4 (4=60-79%)
2 | O=c1c(-c2c(Cl)ccc(Cl)c2OCc2ccc(Cl)cc2)c(O)c2cccnc2n1CC(F)F [Compound 4.003] | 5 (5=80-100%) | 5 (5=80-100%) | 5 (5=80-100%) | 1 (1=0-19%) | 1 (1=0-19%) | 2 (2=20-39%)
3 | Cc1ccc(COc2c(Cl)ccc(Cl)c2-c2c(O)c3cccnc3n(CC(F)F)c2=O)cc1 [Compound 4.004] | 5 (5=80-100%) | 5 (5=80-100%) | 5 (5=80-100%) | 1 (1=0-19%) | 2 (2=20-39%) | 2 (2=20-39%)
4 | O=c1c(-c2c(Cl)ccc(Cl)c2OCc2ccc(Cl)c(Cl)c2)c(O)c2cccnc2n1CC(F)F [Compound 4.005] | 5 (5=80-100%) | 5 (5=80-100%) | 5 (5=80-100%) | 1 (1=0-19%) | 1 (1=0-19%) | 1 (1=0-19%)
5 | O=c1c(-c2c(Cl)ccc(Cl)c2OCc2ccc(C(F)(F)F)cc2)c(O)c2cccnc2n1CC(F)F [Compound 4.006] | 5 (5=80-100%) | 5 (5=80-100%) | 5 (5=80-100%) | 2 (2=20-39%) | 2 (2=20-39%) | 2 (2=20-39%)
6 | COc1ccnc2c1c(O)c(-c1c(Cl)ccc(Cl)c1OCc1ccccc1)c(=O)n2CC(F)F [Compound 4.007] | 5 (5=80-100%) | 5 (5=80-100%) | 5 (5=80-100%) | 2 (2=20-39%) | 3 (3=40-59%) | 3 (3=40-59%)
7 | O=c1c(-c2c(Cl)ccc(Cl)c2OCc2ccccc2)c(O)c2nccnc2n1CC(F)F [Compound 4.008] | 5 (5=80-100%) | 5 (5=80-100%) | 5 (5=80-100%) | 5 (5=80-100%) | 4 (4=60-79%) | 5 (5=80-100%)
8 | C#CCn1c(=O)c(-c2c(F)ccc(Cl)c2OCc2ccccc2)c(OC(=O)C(C)C)c2cccnc21 [Compound 5.001] | 5 (5=80-100%) | 5 (5=80-100%) | 5 (5=80-100%) | 2 (2=20-39%) | 1 (1=0-19%) | 3 (3=40-59%)
9 | C#CCn1c(=O)c(-c2c(F)ccc(Cl)c2OCc2ccccc2)c(OC(=O)C(C)C)c2nccnc21 [Compound 5.003] | 5 (5=80-100%) | 5 (5=80-100%) | 5 (5=80-100%) | 5 (5=80-100%) | 2 (2=20-39%) | 2 (2=20-39%)
10 | C#CCn1c(=O)c(-c2c(F)ccc(Cl)c2OCc2ccccc2)c(O)c2cccnc21 [Compound 6.001] | 5 (5=80-100%) | 5 (5=80-100%) | 5 (5=80-100%) | 2 (2=20-39%) | 3 (3=40-59%) | 4 (4=60-79%)
11 | C#CCn1c(=O)c(-c2c(F)ccc(Cl)c2OCc2ccccc2)c(O)c2c(OC)ccnc21 [Compound 6.002] | 5 (5=80-100%) | 5 (5=80-100%) | 5 (5=80-100%) | 5 (5=80-100%) | 5 (5=80-100%) | 5 (5=80-100%)
12 | C#CCn1c(=O)c(-c2c(F)ccc(Cl)c2OCc2ccccc2)c(O)c2nccnc21 [Compound 6.003] | 5 (5=80-100%) | 5 (5=80-100%) | 5 (5=80-100%) | 5 (5=80-100%) | 4 (4=60-79%) | 4 (4=60-79%)
13 | CC(C)C(=O)Oc1c(-c2c(F)ccc(Cl)c2OCc2ccccc2)c(=O)n(CC(F)F)c2ncccc12 [Compound 7.001] | 5 (5=80-100%) | 5 (5=80-100%) | 5 (5=80-100%) | 1 (1=0-19%) | 1 (1=0-19%) | 1 (1=0-19%)
14 | COc1ccnc2c1c(OC(C)=O)c(-c1c(F)ccc(Cl)c1OCc1ccccc1)c(=O)n2CC(F)F [Compound 7.002] | 5 (5=80-100%) | 5 (5=80-100%) | 5 (5=80-100%) | 5 (5=80-100%) | 4 (4=60-79%) | 5 (5=80-100%)
15 | CC(C)C(=O)Oc1c(-c2c(F)ccc(Cl)c2OCc2ccccc2)c(=O)n(CC(F)F)c2nccnc12 [Compound 7.003] | 5 (5=80-100%) | 5 (5=80-100%) | 5 (5=80-100%) | 5 (5=80-100%) | 2 (2=20-39%) | 2 (2=20-39%)
16 | O=c1c(-c2c(F)ccc(Cl)c2OCc2ccccc2)c(O)c2cccnc2n1CC(F)F [Compound 8.001] | 5 (5=80-100%) | 5 (5=80-100%) | 5 (5=80-100%) | 1 (1=0-19%) | 3 (3=40-59%) | 3 (3=40-59%)
17 | COc1ccnc2c1c(O)c(-c1c(F)ccc(Cl)c1OCc1ccccc1)c(=O)n2CC(F)F [Compound 8.002] | 5 (5=80-100%) | 5 (5=80-100%) | 5 (5=80-100%) | 4 (4=60-79%) | 4 (4=60-79%) | 4 (4=60-79%)
18 | O=c1c(-c2c(F)ccc(Cl)c2OCc2ccccc2)c(O)c2nccnc2n1CC(F)F [Compound 8.003] | 5 (5=80-100%) | 5 (5=80-100%) | 5 (5=80-100%) | 5 (5=80-100%) | 3 (3=40-59%) | 4 (4=60-79%)
